Measurements reported in patent US11547681B2, “N-acylethanolamide derivatives and uses thereof” (ELIEM THERAPEUTICS, INC., priority 2016, dated 2023).
One block for each compound: values may come before it.

Assay: in vitro
Details: for Measured concentration of analyte PEA, 0 min / Measured concentration of analyte PEA, 10 min / Measured concentration of analyte PEA, 20 min / Measured concentration of analyte PEA, 30 min / Measured concentration of analyte PEA, 60 min / % Remaining of Initial, 0 min / % Remaining of Initial, 10 min / % Remaining of Initial, 20 min / % Remaining of Initial, 30 min / % Remaining of Initial, 60 min / Concentration, analyte PEA / % Remaining of Initial (n = 1) / Measured concentration of PEA (analyte) / % Remaining of Initial: 1 μM; for % Remaining of Initial, 0 min / % Remaining of Initial, 10 min / % Remaining of Initial, 20 min / % Remaining of Initial, 30 min / % Remaining of Initial, 60 min / microsomal CLint at 1 μM / half-life at 1 μM / % Remaining of Initial (n = 1) / % Remaining of Initial: microsomes
Method: The reaction mixture, minus cofactors, was prepared as described below. The test article was added into the reaction mixture at a final concentration of 1 μM. […] An aliquot of the reaction mixture (without cofactor) was equilibrated in a shaking water bath at 37° C. for 3 minutes. The reaction was initiated by the addition of cofactor, and the mixture was incubated in a shaking water bath at 37° C. Aliquots (100 μL) were withdrawn at 0, 10, 20, 30, and 60 minutes. All samples were immediately combined with 400 μL of ice-cold 50/50 acetonitrile/H2O containing 0.1% formic acid and internal standard to terminate the reaction. The samples were then mixed and centrifuged to precipitate proteins. Calibration standards were prepared in matched matrix. All samples and standards were assayed by LC-MS/MS using electrospray ionization for both the dosed prodrug I-9 and the expected drug (PEA). Analytical conditions are outlined in Appendix 4-1. The test article concentration at each time point was compared to the test article concentration at time 0 to determine the percent remaining at each time point. Half-lives were calculated using GraphPad software, fitting to a single-phase exponential decay equation.
Reaction mixture, minus cofactors, was prepared as described below. Test article was added into the reaction mixture at a final concentration of 1 μM. […] An aliquot of the reaction mixture (without cofactor) was equilibrated in a shaking water bath at 37° C. for 3 minutes. The reaction was initiated by the addition of cofactor, and the mixture was incubated in a shaking water bath at 37° C. Aliquots (100 μL) were withdrawn at 0, 10, 20, 30, and 60 minutes. Test article samples were immediately combined with 300 μL of ice-cold acetonitrile containing 1% formic acid. Control samples were immediately combined with 400 μL of ice-cold 50/50 acetonitrile (ACN)/dH2O containing 0.1% formic acid and internal standard to terminate the reaction. Samples were then mixed and centrifuged to precipitate proteins. Calibration standards were prepared in matched matrix. Samples and standards were assayed by LC-MS/MS using electrospray ionization for both dosed prodrug and expected drug (PEA). Analytical conditions are outlined in Appendix 8-1. Test article concentration at each time point was compared to test article concentration at time 0 to determine the percent remaining at each time point. Half-lives were calculated using GraphPad software, fitting to a single-phase exponential decay equation.
Reaction mixture, minus cofactors, was prepared as described below. Test article was added into the reaction mixture at a final concentration of 1 μM. […] An aliquot of the reaction mixture (without cofactor) was equilibrated in a shaking water bath at 37° C. for 5 minutes. Reaction was initiated by the addition of cofactor, and the mixture was incubated in a shaking water bath at 37° C. Aliquots (100 μL) were withdrawn at 0, 10, 20, 30, and 60 minutes. Test article samples were immediately combined with 300 μL of ice-cold acetonitrile containing 1% formic acid. Control samples were immediately combined with 400 μL of ice-cold 50/50 acetonitrile (ACN)/dH2O containing 0.1% formic acid and internal standard to terminate the reaction. Samples were then mixed and centrifuged to precipitate proteins. Calibration standards were prepared in matched matrix. Samples and standards were assayed by LC-MS/MS using electrospray ionization for both the dosed prodrug and the expected drug (PEA). Analytical conditions are outlined in Appendix 10-1. Test article concentration at each time point was compared to the test article concentration at time 0 to determine the percent remaining at each time point. Half-lives were calculated using GraphPad software, fitting to a single-phase exponential decay equation.
Reaction mixture, minus cofactors, was prepared as described below. Test article was added into the reaction mixture at a final concentration of 1 μM.

[1] = male, Sprague-Dawley, rat, 0 min
[2] = male, Sprague-Dawley, rat, 10 min
[3] = male, Sprague-Dawley, rat, 20 min
[4] = male, Sprague-Dawley, rat, 30 min
[5] = male, Sprague-Dawley, rat, 60 min
[6] = male, Sprague-Dawley, rat, 0.5 h
[7] = both, human, calculated value in parentheses
[8] = male, Sprague-Dawley, rat, calculated value in parentheses

Measured concentration of analyte PEA, 0 min (both, human, 0 min): 0.046 µM
Measured concentration of analyte PEA, 10 min (both, human, 10 min): 0.29 µM
Measured concentration of analyte PEA, 20 min (both, human, 20 min): 0.20 µM
Measured concentration of analyte PEA, 30 min (both, human, 30 min): 0.16 µM
Measured concentration of analyte PEA, 60 min (both, human, 60 min): 0.057 µM
% Remaining of Initial, 0 min (both, human, 0 h): 100%
% Remaining of Initial, 10 min (both, human, 10 min): 3.1%
% Remaining of Initial, 20 min (both, human, 20 min): <1.0%
% Remaining of Initial, 30 min (both, human, 0.5 h): <1.0%
% Remaining of Initial, 60 min (both, human, 1 h): <1.0%
microsomal CLint at 1 μM (both, human): 696 µL/min/mg
half-life at 1 μM (both, human): 2 min
Measured concentration of analyte PEA, 0 min [1]: 0.023 µM
Measured concentration of analyte PEA, 10 min [2]: 0.048 µM
Measured concentration of analyte PEA, 20 min [3]: 0.031 µM
Measured concentration of analyte PEA, 30 min [4]: 0.0086 µM
Measured concentration of analyte PEA, 60 min [5]: 0 µM
% Remaining of Initial, 0 min (male, Sprague-Dawley, rat, 0 h): 100%
% Remaining of Initial, 10 min [2]: 3.3%
% Remaining of Initial, 20 min [3]: <1.0%
% Remaining of Initial, 30 min [6]: <1.0%
% Remaining of Initial, 60 min (male, Sprague-Dawley, rat, 1 h): <1.0%
microsomal CLint at 1 μM (male, Sprague-Dawley, rat): 681 µL/min/mg
half-life at 1 μM (male, Sprague-Dawley, rat): 2 min
SMILES: CCCCCCCCCCCCCCCC(=O)NCCOC(=O)CCC(=O)OCC(COC(=O)CCC)OC(=O)CCC (stereo not shown) [Compound I-11]

Concentration, analyte PEA (both, human, 0 min): 0 nM
Concentration, analyte PEA (both, human, 10 min): 0 nM
Concentration, analyte PEA (both, human, 20 min): 0 nM
Concentration, analyte PEA (both, human, 30 min): 0 nM
Concentration, analyte PEA (both, human, 60 min): 0 nM
% Remaining of Initial (n = 1) (both, human, 0 h): 100%
% Remaining of Initial (n = 1) (both, human, 10 min): 79%
% Remaining of Initial (n = 1) (both, human, 20 min): 73%
% Remaining of Initial (n = 1) (both, human, 0.5 h): 60%
% Remaining of Initial (n = 1) (both, human, 1 h): 42%
microsomal CLint at 1 μM (both, human): 29.6 µL/min/mg
half-life at 1 μM (both, human): 47 min
Concentration, analyte PEA [1]: 0 nM
Concentration, analyte PEA [2]: 0 nM
Concentration, analyte PEA [3]: 13 nM
Concentration, analyte PEA [4]: 13 nM
Concentration, analyte PEA [5]: 0 nM
% Remaining of Initial (n = 1) (male, Sprague-Dawley, rat, 0 h): 100%
% Remaining of Initial (n = 1) [2]: 91%
% Remaining of Initial (n = 1) [3]: 72%
% Remaining of Initial (n = 1) [6]: 60%
% Remaining of Initial (n = 1) (male, Sprague-Dawley, rat, 1 h): 38%
microsomal CLint at 1 μM (male, Sprague-Dawley, rat): 33.6 µL/min/mg
half-life at 1 μM (male, Sprague-Dawley, rat): 41 min
SMILES: CCCCC/C=C\C/C=C\CCCCCCCC(=O)OCC(COC(=O)CCC(=O)OCCNC(=O)CCCCCCCCCCCCCCC)OC(=O)CCCCCCC/C=C\C/C=C\CCCCC (stereo not shown) [Compound I-13]

Measured concentration of PEA (analyte) (both, human, 0 min): 0 µM
Measured concentration of PEA (analyte) (both, human, 10 min): 0.22 µM
Measured concentration of PEA (analyte) (both, human, 20 min): 0.15 µM
Measured concentration of PEA (analyte) (both, human, 30 min): 0.14 µM
Measured concentration of PEA (analyte) (both, human, 60 min): 0.069 µM
% Remaining of Initial (both, human, 0 h): 100%
% Remaining of Initial (both, human, 10 min): 8.0%
% Remaining of Initial (both, human, 20 min): 3.5%
% Remaining of Initial (both, human, 0.5 h): 1.9%
% Remaining of Initial (both, human, 1 h): <1.0%
microsomal CLint at 1 μM (both, human): > 139 µL/min/mg
microsomal CLint at 1 μM [7]: 493 µL/min/mg
half-life at 1 μM (both, human): < 10 min
half-life at 1 μM [7]: 2.8 min
Measured concentration of PEA (analyte) [1]: 0.025 µM
Measured concentration of PEA (analyte) [2]: 0.033 µM
Measured concentration of PEA (analyte) [3]: 0.015 µM
Measured concentration of PEA (analyte) [4]: 0 µM
Measured concentration of PEA (analyte) [5]: 0 µM
% Remaining of Initial (male, Sprague-Dawley, rat, 0 h): 100%
% Remaining of Initial [2]: 9.7%
% Remaining of Initial [3]: 4.2%
% Remaining of Initial [6]: 3.1%
% Remaining of Initial (male, Sprague-Dawley, rat, 1 h): <1.0%
microsomal CLint at 1 μM (male, Sprague-Dawley, rat): > 139 µL/min/mg
microsomal CLint at 1 μM [8]: 452 µL/min/mg
half-life at 1 μM (male, Sprague-Dawley, rat): < 10 min
half-life at 1 μM [8]: 3.1 min
SMILES: CCCCCCCCCCCCCCCC(=O)NCCOC(=O)CCC(=O)OC(COC(=O)CCC)COC(=O)CCC [Compound I-16]
